# System: GEMS receptors with CBPvene (Bcl2–LD3 and Bcl2high variants), STAT3-driven SEAP in HEK293T cells
# Assay: GEMS SEAP reporter assay, CBPvene (Bcl2high, LD3-v and Bcl2-v variants) with venetoclax
# Type: cell-based
# Conditions: for SEAP normalized (max=100) / SEAP: Supp Fig 10c
# [1] = SuppFigure 8a, LD3, venetoclax 1 nM
# [2] = SuppFigure 8a, LD3, venetoclax 3.16 nM
# [3] = SuppFigure 8a, LD3, venetoclax 100 nM
# [4] = SuppFigure 8a, LD3, venetoclax 316 nM
# [5] = SuppFigure 8a, LD3, venetoclax 1000 nM
# [6] = SuppFigure 8a, LD3, venetoclax 3160 nM
# [7] = SuppFigure 8a, LD3, venetoclax 10000 nM
# [8] = SuppFigure 8a, LD3v1, venetoclax 1 nM
# [9] = SuppFigure 8a, LD3v1, venetoclax 3.16 nM
# [10] = SuppFigure 8a, LD3v1, venetoclax 100 nM
# [11] = SuppFigure 8a, LD3v1, venetoclax 316 nM
# [12] = SuppFigure 8a, LD3v1, venetoclax 1000 nM
# [13] = SuppFigure 8a, LD3v1, venetoclax 3160 nM
# [14] = SuppFigure 8a, LD3v1, venetoclax 10000 nM
# [15] = SuppFigure 8a, LD3v2, venetoclax 1 nM
# [16] = SuppFigure 8a, LD3v2, venetoclax 3.16 nM
# [17] = SuppFigure 8a, LD3v2, venetoclax 100 nM
# [18] = SuppFigure 8a, LD3v2, venetoclax 316 nM
# [19] = SuppFigure 8a, LD3v2, venetoclax 1000 nM
# [20] = SuppFigure 8a, LD3v2, venetoclax 3160 nM
# [21] = SuppFigure 8a, LD3v2, venetoclax 10000 nM
# [22] = SuppFigure 8a, LD3v3, venetoclax 1 nM
# [23] = SuppFigure 8a, LD3v3, venetoclax 3.16 nM
# [24] = SuppFigure 8a, LD3v3, venetoclax 100 nM
# [25] = SuppFigure 8a, LD3v3, venetoclax 316 nM
# [26] = SuppFigure 8a, LD3v3, venetoclax 1000 nM
# [27] = SuppFigure 8a, LD3v3, venetoclax 3160 nM
# [28] = SuppFigure 8a, LD3v3, venetoclax 10000 nM
# [29] = SuppFigure 8b, LD3, venetoclax 1 nM
# [30] = SuppFigure 8b, LD3, venetoclax 3.16 nM
smiles,measurement,setting,value
CC1(C)CCC(CN2CCN(c3ccc(C(=O)NS(=O)(=O)c4ccc(NCC5CCOCC5)c([N+](=O)[O-])c4)c(Oc4cnc5[nH]ccc5c4)c3)CC2)=C(c2ccc(Cl)cc2)C1 [Venetoclax],SEAP normalized (max=100),"Bcl2-v3, venetoclax 1 nM",94.2276
same,SEAP,"Bcl2-v3, venetoclax 3.16 nM",34.981
same,SEAP normalized (max=100),"Bcl2-v3, venetoclax 3.16 nM",94.0003
same,SEAP,"Bcl2-v5, venetoclax 1 nM",25.6864
same,SEAP normalized (max=100),"Bcl2-v5, venetoclax 1 nM",99.6735
same,SEAP,"Bcl2-v5, venetoclax 3.16 nM",25.7705
same,SEAP normalized (max=100),"Bcl2-v5, venetoclax 3.16 nM",100
same,SEAP,"Bcl2-v6, venetoclax 1 nM",44.5051
same,SEAP normalized (max=100),"Bcl2-v6, venetoclax 1 nM",24.1282
same,SEAP,"Bcl2, venetoclax 1 nM",9.631
same,SEAP normalized (max=100),"Bcl2, venetoclax 1 nM",6.451
same,SEAP,"Bcl2, venetoclax 3.16 nM",8.848
same,SEAP normalized (max=100),"Bcl2, venetoclax 3.16 nM",5.926
same,Normalized data (SEAP),[1],18.1283
same,Raw data (SEAP),[1],14.9284
same,Normalized data (SEAP),[2],15.4665
same,Raw data (SEAP),[2],12.7365
same,Normalized data (SEAP),[3],62.0224
same,Raw data (SEAP),[3],51.0746
same,Normalized data (SEAP),[4],79.6476
same,Raw data (SEAP),[4],65.5888
same,Normalized data (SEAP),[5],100
same,Raw data (SEAP),[5],82.3488
same,Normalized data (SEAP),[6],64.1557
same,Raw data (SEAP),[6],52.8314
same,Normalized data (SEAP),[7],26.7094
same,Raw data (SEAP),[7],21.9948
same,Normalized data (SEAP),[8],73.3263
same,Raw data (SEAP),[8],13.9463
same,Normalized data (SEAP),[9],77.9742
same,Raw data (SEAP),[9],14.8303
same,Normalized data (SEAP),[10],93.9945
same,Raw data (SEAP),[10],17.8773
same,Normalized data (SEAP),[11],100
same,Raw data (SEAP),[11],19.0195
same,Normalized data (SEAP),[12],92.9583
same,Raw data (SEAP),[12],17.6802
same,Normalized data (SEAP),[13],77.7035
same,Raw data (SEAP),[13],14.7788
same,Normalized data (SEAP),[14],63.3664
same,Raw data (SEAP),[14],12.052
same,Normalized data (SEAP),[15],16.5083
same,Raw data (SEAP),[15],13.4033
same,Normalized data (SEAP),[16],16.1655
same,Raw data (SEAP),[16],13.125
same,Normalized data (SEAP),[17],55.5208
same,Raw data (SEAP),[17],45.078
same,Normalized data (SEAP),[18],68.4407
same,Raw data (SEAP),[18],55.5679
same,Normalized data (SEAP),[19],100
same,Raw data (SEAP),[19],81.1913
same,Normalized data (SEAP),[20],59.661
same,Raw data (SEAP),[20],48.4395
same,Normalized data (SEAP),[21],19.9233
same,Raw data (SEAP),[21],16.176
same,Normalized data (SEAP),[22],79.8276
same,Raw data (SEAP),[22],14.5214
same,Normalized data (SEAP),[23],77.8421
same,Raw data (SEAP),[23],14.1602
same,Normalized data (SEAP),[24],89.5467
same,Raw data (SEAP),[24],16.2894
same,Normalized data (SEAP),[25],90.6522
same,Raw data (SEAP),[25],16.4905
same,Normalized data (SEAP),[26],100
same,Raw data (SEAP),[26],18.191
same,Normalized data (SEAP),[27],92.956
same,Raw data (SEAP),[27],16.9096
same,Normalized data (SEAP),[28],54.34
same,Raw data (SEAP),[28],9.885
same,Normalized data (SEAP),[29],3.308
same,Raw data (SEAP),[29],13.9036
same,Normalized data (SEAP),[30],3.395
same,Raw data (SEAP),[30],14.2688
